Reference: patent publication US8658801B2, “Pesticides containing a bicyclic bisamide structure” (Syngenta Crop Protection, LLC, priority 2006, dated 2014)

Compound	melting point
CNC(=O)c1c(NC(=O)c2cc(C(F)(F)F)nn2-c2ncccc2Cl)ccc2ncccc12 [Example 46, 6-{[2-(3-chloro-pyridin-2-yl)-5-trifluoromethyl-2H-pyrazole-3-carbonyl]-amino}-quinoline-5-carboxylic acid methylamide]	210 to 211 °C
CC(C)NC(=O)c1c(NC(=O)c2cc(C(F)(F)F)nn2-c2ncccc2Cl)ccc2cccnc12 [P.73, 7-{[2-(3-chloro-pyridin-2-yl)-5-trifluoromethyl-2H-pyrazole-3-carbonyl]-amino}-quinoline-8-carboxylic acid isopropylamide]	225 to 226 °C
C#Cc1cc2cn[nH]c2c(C(=O)NC(C)C)c1NC(=O)c1cc(C(F)F)nn1-c1ncccc1Cl [P.80]	233 to 236 °C
C#Cc1cc2cn[nH]c2c(C(=O)NC2(C3CC3)CC2)c1NC(=O)c1cc(C(F)F)nn1-c1ncccc1Cl [P.81]	218 to 221 °C
